From patent publication US20140296143A1, “Angiotensin-(1-7) As A Chemoprevention Agent” (Wake Forest Innovations, priority 2008, published 2014)
Square brackets hold non-standard residues; d marks the D form. Ends that are not written are not given here.

Assays:
[1] = test system: SK-LU-1 lung cancer cells; assay type: cell-based, human; settings: for effect of antagonist on inhibition of serum-stimulated growth by Ang-(1-7): SK-LU-1, antagonist pretreatment (1 μM); for effect on serum-stimulated ^3H-thymidine incorporation: SK-LU-1, peptide at 1 or 100 nM
Procedure: Cells were grown to subconfluence in either 24-well cluster plates or 100 mm dishes and made quiescent by treatment for 48 h with serum-depleted growth media, prior to the experiments outlined below to measure cell growth (^3H-thymidine incorporation), cell signaling or apoptosis.
Subsequently, the cell monolayer was washed with cold phosphate-buffered saline (PBS; 50 mM NaPO4, 120 mM NaCl, pH=7.2). The adherent cells were precipitated with cold 10% TCA (4° C. for 30 min) and dissolved in 0.2% SDS in 0.1 N NaOH.
During an additional 4 h, cell monolayers were pulsed with ^3H-thymidine (0.25 μCi/well) and harvested.

VSMCs = settings: pretreatment; U.S. Pat. No. 7,375,073; cited from earlier work
AT2 angiotensin receptor = molecular target: T1, AT2 angiotensin receptor (Homo sapiens, UniProt P50052); settings: literature; cited from earlier work
T1 sequence (P50052 1-363): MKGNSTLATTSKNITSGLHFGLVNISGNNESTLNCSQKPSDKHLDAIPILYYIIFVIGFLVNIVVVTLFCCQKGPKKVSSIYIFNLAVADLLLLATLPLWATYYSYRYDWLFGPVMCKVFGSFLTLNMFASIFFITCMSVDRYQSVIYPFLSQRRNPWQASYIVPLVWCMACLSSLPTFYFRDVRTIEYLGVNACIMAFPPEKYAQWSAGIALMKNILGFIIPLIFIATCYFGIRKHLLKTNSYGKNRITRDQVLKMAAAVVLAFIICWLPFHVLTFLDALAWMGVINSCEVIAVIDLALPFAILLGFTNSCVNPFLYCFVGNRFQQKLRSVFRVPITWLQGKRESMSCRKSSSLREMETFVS

AT1 angiotensin receptor = settings: literature; cited from earlier work
EA.hy.926 cells = experiment: Tube formation of endothelial cells in Matrigel; assay type: cell-based, human; settings: selective Ang-(1-7) receptor antagonist
Procedure: These cells are a transformed human endothelial cell line derived from umbilical vein endothelial cells. They retain their endothelial phenotype and were previously used to study angiogenesis.
After a 16 h incubation period to allow tube formation, cultures were photographed and branch points were counted, to quantify tube formation.

Sequence of AT1 angiotensin receptor (P30556 whole entry): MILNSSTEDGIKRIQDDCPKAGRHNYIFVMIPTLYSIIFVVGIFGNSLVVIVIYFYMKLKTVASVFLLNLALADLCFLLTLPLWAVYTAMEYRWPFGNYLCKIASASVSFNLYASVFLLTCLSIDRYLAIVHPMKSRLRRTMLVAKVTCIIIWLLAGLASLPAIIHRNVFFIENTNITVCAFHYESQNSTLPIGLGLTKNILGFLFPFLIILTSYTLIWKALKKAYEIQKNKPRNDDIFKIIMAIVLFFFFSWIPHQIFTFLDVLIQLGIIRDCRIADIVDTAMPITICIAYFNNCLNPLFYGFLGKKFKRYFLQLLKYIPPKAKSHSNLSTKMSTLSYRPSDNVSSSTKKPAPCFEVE

Compound | effect of antagonist on inhibition of serum-stimulated growth by Ang-(1-7) [1] | effect on serum-stimulated ^3H-thymidine incorporation [1] | other results
CCCCc1nc(Cl)c(CO)n1Cc1ccc(-c2ccccc2-c2nn[nH]n2)cc1 [Losartan] | neither AT1 nor AT2 angiotensin receptor antagonists Losartan and PD123177, respectively, were effective | – | –
Cc1cc(Cn2cnc3c2CC(C(=O)O)N(C(=O)C(c2ccccc2)c2ccccc2)C3)ccc1N (stereo not drawn) [PD123177] | neither AT1 nor AT2 angiotensin receptor antagonists Losartan and PD123177, respectively, were effective | – | –
CCN(CC)CC.Nc1ncnc2c1ncn2[C@@H]1O[C@@H]2COP(O)(=S)O[C@H]2[C@H]1O (stereo partly drawn) [Rp-cAMPS, Rp-adenosine-3′,5′-cyclic monphospho-phorothioate triethylamine salt] | – | – | effect on the reduction in serum-stimulated ^3H-thymidine incorporation by Ang-(1-7) or carbacyclin (VSMCs): completely blocked
Arg-Val-Tyr-Ile-His-Pro-Phe (RVYIHPF; listed as Homo sapiens) [Ang-(2-8)] | – | ineffective | –
Asp-Arg-Val-Tyr-Ile-His-Pro-Phe [Ang II] | – | ineffective | –
DRVYIHPFHL [Ang I] | – | ineffective | –
Val-Tyr-Ile-His-Pro (VYIHP; listed as Homo sapiens) [Ang-(3-7)] | – | ineffective | –
Val-Tyr-Ile-His-Pro-Phe (VYIHPF; listed as Homo sapiens) [Ang-(3-8)] | – | ineffective | –
[D-Ala^7]-Ang-(1-7): a modified form of Ang-(1-7), selective Ang-(1-7) antagonist (DRVYIH[dA]) [reference compound] | blocked | – | competition at the AT2 receptor (AT2 angiotensin receptor): poor competitor; competition at the AT1 receptor (AT1 angiotensin receptor): poor competitor
[D-Pro^7]-Ang-(1-7): a selective Ang-(1-7) receptor antagonist [reference compound] | – | – | effect on Ang-(1-7)-mediated reduction in tube formation (EA.hy.926 cells): prevented
